Measurements from US20090035345A1, “Nuclear Receptors Agonists for Treatment of Atherosclerosis and/or Related Cardiovascular Disease” (ACADEMISCH MEDISCH CENTRUM, BUREAU, priority 2005, published 2009).

Experiments:
[1] = system: TR3-like factors; details: Chintharlapalli et al., J Biol. Chem. 2005; cited from earlier work
[2] = system: human SMCs; assay: DNA synthesis assay ([3H]thymidine incorporation) in FBS-stimulated cultured SMCs; assay type: cell-based; details: for DNA synthesis in SMCs: increasing concentrations of C-DIM
Description: (§1) Human SMCs were explanted from umbilical cord arteries. Cells were cultured in DMEM (Invitrogen Life Technology, Breda, The Netherlands) with 10% (v/v) fetal bovine serum (FBS) with penicillin and streptomycin (Invitrogen). Cells were used at passages five to seven. […] To determine cellular viability, cells were washed with PBS and subsequently incubated in medium in the presence of 0.5-mg/ml 3-(4,5-dimethylthiazol-2-yl)-2,5-diphenyltetrazolium bromide (MTT; Sigma Diagnostics, St. Louis). After two hours, medium was discarded, formazan crystals were dissolved in isopropanol and optical density was measured at 590 nm. Apoptosis was induced by incubating cells for 24 hours in medium with 0.25 μM staurosporine (Sigma). Subsequently, SMCs were fixed, stained with Hoechst dye and the relative number of apoptotic nuclei was determined.
SMCs were seeded in 24-well plates at 1−4×10^4 cells per well and reached 60% to 70% confluency after 24 hours. SMCs were made quiescent by incubation for 24 hours in FBS-free medium. 6-MP was dissolved in dimethylsulfoxide and applied one hour before FBS stimulation. SMCs were stimulated for 24 hours with 10% (v/v) FBS and subsequently cells were labeled for 18 hours with 0.25 μCi/well [methyl-3H]thymidine (Amersham Biosciences, Buckinghamshire, UK). Incorporated radioactivity was precipitated for 30 min at 4° C. with 10% (w/v) trichloroacetic acid, washed twice with 5% (w/v) trichloroacetic acid, and dissolved in 0.5 N NaOH (0.5 mL per well). Incorporated [^3H]thymidine was measured by liquid-scintillation counting.
(§2) The following small interfering (si)RNA sequences were used: Nur77 siRNA, 5′-CAG UCC AGC CAU GCU CCU C dTdT-3′, as described previously^20, and control siRNA, 5′-CAG ACG AGC CUU GCU CGU C dTdT-3′ (Ambion Inc., Austin, Tex.). Five μg of siRNA was transfected into 0.5−1×10^6 SMCs, using Nucleofector reagent for SMCs (Amaxa) as per the manufacturer's recommendations. Total mRNA was isolated five days after transfection, using the absolutely mRNA miniprep kit (Stratagene, La Jolla, Calif.). Subsequent cDNA synthesis was performed using the iScript cDNA synthesis kit (Biorad, Hercules, Calif.). Real-time polymerase chain reaction (PCR) was performed using SYBR green mix (Biorad) in the MyIQ System (Biorad). Primers for Nur77 were as follows: (forward) 5′-[…]-3′ and (reverse) 5′-[…]-3′. As a control for equal amount of first strand cDNA in different samples we corrected for Ribosomal Phosphoprotein (P0) mRNA levels, which were determined with the following primers (forward) 5′-[…]-3′ and (reverse) 5′-[…]-3′.
as §2, with “iscript” for “iScript”

[3] = system: human SMCs; assay: SMC viability by MTT assay; assay type: cell-based; details: quiescent SMCs, 24 hours
Description: as §1

[4] = system: human SMCs; assay: Apoptosis of SMCs, Hoechst staining of nuclei; assay type: cell-based; details: 24 hours
Description: as §1

FC(F)(F)c1ccc(C(c2c[nH]c3ccccc23)c2c[nH]c3ccccc23)cc1 [C-DIM-CF3]
activity of TR3-like factors [1]: increase the activity of TR3-like factors
DNA synthesis in SMCs ([2]; serum): inhibit DNA synthesis in SMCs dose dependently

c1ccc(C(c2c[nH]c3ccccc23)c2c[nH]c3ccccc23)cc1 [C-DIM-H]
activity of TR3-like factors [1]: increase the activity of TR3-like factors
effectiveness in inhibiting DNA synthesis compared with the other C-DIMs ([2]; serum, increasing concentrations): less effective
DNA synthesis in SMCs ([2]; serum): inhibit DNA synthesis in SMCs dose dependently

COc1ccc(C(c2c[nH]c3ccccc23)c2c[nH]c3ccccc23)cc1 [C-DIM-OCH3]
activity of TR3-like factors [1]: increase the activity of TR3-like factors
inhibition of DNA synthesis ([2]; SMCs transfected with Nur77 (TR3)-specific siRNA): 40.1%
inhibition of DNA synthesis ([2]; SMCs transfected with control siRNA): 49.7%
DNA synthesis in SMCs ([2]; serum): inhibit DNA synthesis in SMCs dose dependently

CN[C@@H]1C[C@H]2O[C@@](C)([C@@H]1OC)n1c3ccccc3c3c4c(c5c6ccccc6n2c5c31)C(=O)NC4 [staurosporine]
cellular viability / cytotoxicity (MTT) [3]: reduces cell viability
reduction of number of viable cells (MTT) [3]: 35%
induction of apoptosis ([4]; SMCs, staurosporine 0.25 μM): induces apoptosis
apoptosis (apoptotic nuclei) ([4]; quiescent SMCs): 50%±4%
